Activity calls are given as the source filed them. No cut-off for these calls is given here.
What was measured:
[1] = pampa, pH 7.4, 18 h
Description: Permeability of the compound in PBS buffer at pH 7.4 measured after 18 hrs by UV plate reader based PAMPA assay

[2] = biological target: T1, Tyrosine-protein kinase JAK2 (Homo sapiens, UniProt O60674); assay: biochemical
Description: Binding affinity to JAK2 JH2 (unknown origin) expressed in baculovirus infected Sf9 cells assessed as dissociation constant measured upto 30 mins in presence of tracer by competitive fluorescence polarization assay

[3] = system: Tyrosine-protein kinase JAK2 (Homo sapiens), O60674 [V617F]; assay: Inhibition of JAK2 JH2 V617F mutant in human HEL cells assessed as reduction in STAT5 phosphorylation at 20 uM measured after 3 hrs by Western blotting analysis; format: cell-based
Sequence of Tyrosine-protein kinase JAK2 (Homo sapiens), O60674 [V617F] (O60674 whole entry V617F): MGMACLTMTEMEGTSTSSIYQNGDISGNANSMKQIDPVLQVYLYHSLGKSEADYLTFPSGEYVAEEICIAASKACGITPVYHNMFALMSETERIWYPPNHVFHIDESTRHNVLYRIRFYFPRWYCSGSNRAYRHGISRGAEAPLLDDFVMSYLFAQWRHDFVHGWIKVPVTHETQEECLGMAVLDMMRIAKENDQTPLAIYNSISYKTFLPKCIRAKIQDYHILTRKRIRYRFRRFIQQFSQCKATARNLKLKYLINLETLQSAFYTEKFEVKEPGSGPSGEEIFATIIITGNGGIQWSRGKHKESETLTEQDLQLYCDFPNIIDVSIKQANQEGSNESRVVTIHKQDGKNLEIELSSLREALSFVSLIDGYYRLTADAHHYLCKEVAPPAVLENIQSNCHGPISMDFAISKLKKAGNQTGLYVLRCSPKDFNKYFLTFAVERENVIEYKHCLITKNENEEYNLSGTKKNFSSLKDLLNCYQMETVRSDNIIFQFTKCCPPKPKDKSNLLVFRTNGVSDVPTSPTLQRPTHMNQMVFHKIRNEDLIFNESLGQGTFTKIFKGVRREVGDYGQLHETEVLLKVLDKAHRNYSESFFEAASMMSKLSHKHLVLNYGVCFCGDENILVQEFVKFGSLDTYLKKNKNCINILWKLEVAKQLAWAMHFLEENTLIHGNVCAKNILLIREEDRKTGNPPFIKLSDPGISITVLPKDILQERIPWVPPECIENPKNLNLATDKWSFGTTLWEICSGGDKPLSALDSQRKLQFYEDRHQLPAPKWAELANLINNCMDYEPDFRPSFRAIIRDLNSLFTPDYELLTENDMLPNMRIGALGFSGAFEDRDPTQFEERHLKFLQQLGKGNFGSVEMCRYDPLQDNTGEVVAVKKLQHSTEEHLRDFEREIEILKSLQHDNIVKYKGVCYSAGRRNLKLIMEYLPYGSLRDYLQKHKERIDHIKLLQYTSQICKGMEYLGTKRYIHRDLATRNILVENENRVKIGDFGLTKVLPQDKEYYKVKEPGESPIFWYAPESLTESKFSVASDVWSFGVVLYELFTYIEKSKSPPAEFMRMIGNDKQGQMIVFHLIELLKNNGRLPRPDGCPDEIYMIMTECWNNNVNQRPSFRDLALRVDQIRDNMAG

[4] = system: Tyrosine-protein kinase JAK2 (Homo sapiens), O60674 [V617F]; assay: Inhibition of JAK2 JH2 V617F mutant in human HEL cells assessed as reduction in STAT5 phosphorylation at 10 to 20 uM incubated for 1 hrs by Western blotting analysis; format: cell-based; conditions: dose 10-20 µM
[5] = biological target: T1, Tyrosine-protein kinase JAK2; assay: Inhibition of wild type JAK2 JH2 in human TF-1 cells assessed as reduction in STAT5 phosphorylation at 10 to 20 uM incubated for 1 hrs by Western blotting analysis; format: cell-based; conditions: dose 10-20 µM
[6] = biological target: T1, Tyrosine-protein kinase JAK2; assay: biochemical; remark: listed apart in the source
Description: Binding affinity to wild type JAK2 JH1 (unknown origin) expressed in baculovirus infected Sf9 cells assessed as dissociation constant measured upto 30 mins in presence of tracer by competitive fluorescence polarization assay

[7] = biological target: Tyrosine-protein kinase JAK2 (Homo sapiens, UniProt O60674, V617F); assay: biochemical
Sequence of Tyrosine-protein kinase JAK2 (Homo sapiens, UniProt O60674, V617F) (O60674 whole entry V617F): as above
Description: Binding affinity to JAK2 JH2 V617F mutant (unknown origin) expressed in baculovirus infected Sf9 cells assessed as dissociation constant measured upto 30 mins in presence of tracer by competitive fluorescence polarization assay

[8] = biological target: T1, Tyrosine-protein kinase JAK2; assay: Inhibition of JAK2 JH2 (unknown origin) expressed in baculovirus infected Sf9 cells at 50 uM incubated upto 30 mins in the presence of tracer by competitive fluorescence polarization analysis relative to control

T1 sequence (O60674 whole entry): as the sequence (O60674 whole entry V617F) above, with F617V counted along it

In the case of `Nc1nc(Nc2ccc(S(N)(=O)=O)cc2)nn1C(=O)Nc1ccc(-c2cccc(C(=O)O)c2)cc1`, the permeability [1] is reported as 0.015 10^-6 cm/s and the Kd [2] is reported as 129 nM.

For `CNC(=O)c1ccc(Nc2nc(N)n(C(=O)Nc3ccc(-c4ccc(OCc5ccccc5)c(C(=O)O)c4)cc3)n2)cc1`, the inhibition [3] was “Active”, the inhibition [4] was “Active” and the inhibition [5] was “Active”. The permeability [1] was 0.24 10^-6 cm/s, the Kd [6] was 6810 nM and the Kd [7] was 43 nM.

For `COC(=O)c1cccc(-c2ccc(NC(=O)n3nc(Nc4ccc(S(N)(=O)=O)cc4)nc3N)cc2)c1`, the inhibition [8] was 27% and the permeability [1] was 0.09 10^-6 cm/s.

For `Nc1nc(Nc2ccc(S(N)(=O)=O)cc2)nn1C(=O)Nc1ccc(-c2cncc(C(=O)O)c2)cc1`, the Kd [2] was 652 nM.

`Nc1nc(Nc2ccc(S(N)(=O)=O)cc2)nn1C(=O)Nc1ccc(-c2ccc(C(=O)O)cc2)cc1` gave a Kd [2] of 155 nM.

For `Nc1nc(Nc2ccc(S(N)(=O)=O)cc2)nn1C(=O)Nc1ccc(-c2cncc(C(=O)O)n2)cc1`, the Kd [2] was 1400 nM.

`Nc1nc(Nc2ccc(S(N)(=O)=O)cc2)nn1C(=O)Nc1ccc(-c2cccc(C(=O)O)n2)cc1` gave a Kd [2] of 934 nM.

For `CNC(=O)c1ccc(Nc2nc(N)n(C(=O)Nc3ccc(-c4cc(OCc5ccccc5)cc(C(=O)O)c4)cc3)n2)cc1`, the permeability [1] was 0.971 10^-6 cm/s, the Kd [2] was 44 nM and the Kd [6] was 5910 nM. The Kd [7] was 50 nM.

For `Nc1nc(Nc2ccc(S(N)(=O)=O)cc2)nn1C(=O)Nc1ccc(-c2cc(OCc3ccccc3)cc(C(=O)O)c2)cc1`, the permeability [1] was 1.15 10^-6 cm/s, the Kd [2] was 75 nM and the Kd [6] was 3360 nM. It also gave a Kd [7] of 62 nM.

Work on `Nc1nc(Nc2ccc(S(N)(=O)=O)cc2)nn1C(=O)Nc1ccc(-c2ccnc(C(=O)O)c2)cc1` yielded a Kd [2] of 394 nM, a Kd [6] of 8100 nM and a Kd [7] of 131 nM.

Compound `Nc1nc(Nc2ccc(S(N)(=O)=O)cc2)nn1C(=O)Nc1ccc(-c2ccccc2)cc1` has an inhibition [8] of 30.5%.

From ChEMBL document CHEMBL5131539, “Insights on JAK2 Modulation by Potent, Selective, and Cell-Permeable Pseudokinase-Domain Ligands” (J Med Chem, 2022)
